Measured values: US10098900B2, “Pharmaceutical compositions and their use for treatment of cancer and autoimmune diseases” (ZHEJIANG DTRM BIOPHARMA CO. LTD., priority 2015, dated 2018)
Read-outs that look alike come from different tables or passages of the source. Marks after values point to notes of the source that are not given here.

Experiments:
TMD-8 lymphoma xenograft = assay: Inhibition of tumor growth in vivo, TMD-8 lymphoma xenograft SCID mouse model; settings: for Antitumor effect (%): TMD-8, Oral, BID
Experimental: Inhibition Study of Tumor Growth In Vivo:
SCID mice or nude mice (weighing about 18 g at the beginning of the experiment) were randomly divided into groups by the software in order to achieve close average weights between groups and control the bias within the allowable range. The mice were injected BTK cell lines (TMD-8, WSU-DLCL2 and DoHH-2) for tumor formation. Inhibitors were administered orally once or twice a day, a total of 14 days, 21 days or 28 days. Body weights and tumor volume were recorded.
Xenograft Tumor Models Inoculated with TMD-8, or DoHH2, or WSU-DLCL2 Tumor Cell Lines:
TMD-8 is a sensitive human diffuse large B-cell lymphoma cell line, and DoHH2 is a more difficult to treat human follicular lymphoma cell line, while WSU-DLCL2 is a multi-drug resistant (MDR) human non-Hodgkin's lymphoma cell line. Drug combination therapies provide better efficacies in all three tumor models than single targeted agent alone.
The TMD-8, DoHH2, WSU-DLCL2 tumor cells were maintained in vitro as a suspension culture in RPMI-1640 medium supplemented with 10% heat inactivated fetal calf serum at 37° C. in an atmosphere of 5% CO2 in air. The tumor cells were routinely subcultured twice weekly. The cells growing in an exponential growth phase were harvested and counted for tumor inoculation. Each mouse was inoculated subcutaneously at the right flank with the tumor cells (10×10^6) in 0.2 ml of PBS with Matrigel (1:1) for tumor development. The treatments were started after the average tumor size reached approximately 100-200 mm^3. Each group consisted of 6-10 tumor-bearing mice. The testing article (vehicle, compound or combination) was orally administrated to the mice according to the predetermined doses for 14-days or 21-days. Animal body weight and tumor volume were measured every 2- or 3-days throughout the treatment.

TMD-8 cell line = assay: Inhibition assay of tumor cell activity (cell viability), TMD-8; assay type: cell-based, human; settings: individual compound; for inhibition at 0.01 µM / inhibition at 0.1 µM / inhibition at 1 µM: Homo sapiens, TMD8, 48 h, read-out: Inh % on TMD-8 cell line (AVG); for Inh % on TMD-8 cell line (AVG): 48 h
Experimental: (§1) Inhibition Assay of Tumor Cell Activity:
(§2) Tumor cells (TMD-8, DoHH2 and WSU-DLCL2) were transferred and attached to 96-well plates. After one night, blank buffer and selected concentrations (0.01 nM-100 μM) of the test compound solution were added. After 48 hours incubation, CellTiter-Go was added to lyse the cells. Recording luminescent signal and calculate the percent inhibition of cell viability

[1] = test system: resistant WSU-DLCL2 cell line; assay: Inhibition assay of tumor cell activity (cell viability), WSU-DLCL2; assay type: cell-based; settings: Homo sapiens, WSUDLCL2, individual compound, read-out: Inh % on resistant WSU-DLCL2 cell line (AVG)
Experimental: as §1, §2

DoHH-2 cell line = assay: Inhibition assay of tumor cell activity (cell viability), DoHH-2; assay type: cell-based; settings: Homo sapiens, individual compound, read-out: Inh % on DoHH-2 cell line (AVG)
Experimental: as §1, §2

[2] = test system: collagen induced arthritis; assay: Collagen-induced arthritis (CIA) model in male DBA/1 mice (clinical score, histopathology); assay type: in vivo, mouse; parameters: Clinical Score (Mean) / Pathological score (Mean ± SEM), Inflammatory cell infiltration / Pathological score (Mean ± SEM), Pannus growth / Pathological score (Mean ± SEM), Cartilage injury / Pathological score (Mean ± SEM), Bone resorption / Pathological score (Mean ± SEM), Total: scale not given here; settings: CIA study; for Clinical Score (Mean): Dexamethasone 0.2 mg/kg
Experimental: Collagen-Induced Arthritis (CIA) Model: The combination of Compounds 3 and 12 was evaluated in collagen induced arthritis (CIA) mouse model in Male DBA/1 mice. The animals were divided into 8 groups, including a normal, a vehicle, […] treatment groups: […] On the same day, immunized mice were randomly divided into 7 groups: […] The treatments were given orally for 2 consecutive weeks. Body weight and clinical score were monitored through the study (recorded three times a week started after second immunization). At the end of the study, animals were euthanized and both hind paws were collected for histopathology analysis.

WSU-DLCL2 xenograft = settings: gavage to mice, 480 mg/kg/day, Knutson et al., cited from earlier work
[3] = Left hind paw, Dexamethasone 0.2 mg/kg QD
[4] = Right hind paw, Dexamethasone 0.2 mg/kg QD

Compound: CO[C@H]1C[C@@H]2CC[C@@H](C)[C@@](O)(O2)C(=O)C(=O)N2CCCC[C@H]2C(=O)O[C@H]([C@H](C)C[C@@H]2CC[C@@H](OCCO)[C@H](OC)C2)CC(=O)[C@H](C)/C=C(\C)[C@@H](O)[C@@H](OC)C(=O)[C@H](C)C[C@H](C)/C=C/C=C/C=C/1C [Compound 14, Everolimus]
- tumor disappearance (TMD-8 lymphoma xenograft; TMD-8 mice model, text): tumor disappearance

Compound: Nc1cccc2c1C(=O)N(C1CCC(=O)NC1=O)C2=O (centres unmarked) [Compound 15, Pomalidomide]
- inhibition at 0.01 µM (TMD-8 cell line; 0.01 uM (10 nM)): 45.1%
- inhibition at 0.1 µM (TMD-8 cell line; 0.1 uM (100 nM)): 61.7%
- inhibition at 1 µM (TMD-8 cell line; 1 uM (1,000 nM)): 76.8%
- Antitumor effect (%) (TMD-8 lymphoma xenograft; FIG. 2, 14 days, 30 mg/kg): 24%
- Antitumor effect (%) (TMD-8 lymphoma xenograft; FIG. 3, 21 days, 10 mg/kg): −8%
- inhibition at 0.01 µM ([1]; 0.01 uM): -14.5%
- inhibition at 0.1 µM ([1]; 0.1 uM): -8.32%
- inhibition at 1 µM ([1]; 1 uM): 46.6%
- inhibition at 0.01 µM (DoHH-2 cell line; 0.01 uM): -7.95%
- inhibition at 0.1 µM (DoHH-2 cell line; 0.1 uM): 6.75%
- inhibition at 1 µM (DoHH-2 cell line; 1 uM): 51.3%

Compound: Nc1cccc2c1CN(C1CCC(=O)NC1=O)C2=O (centres unmarked) [Compound 16, Lenalidomide]
- inhibition at 0.01 µM (TMD-8 cell line; 0.01 uM (10 nM)): 7.43%
- inhibition at 0.1 µM (TMD-8 cell line; 0.1 uM (100 nM)): 21%
- inhibition at 1 µM (TMD-8 cell line; 1 uM (1,000 nM)): 94.2%
- Antitumor effect (%) (TMD-8 lymphoma xenograft; FIG. 4, 21 days, 10 mg/kg): 16%
- Antitumor effect (%) (TMD-8 lymphoma xenograft; FIG. 4, 21 days, 30 mg/kg): 42%

Compound: CO[C@H]1C[C@@H]2CC[C@@H](C)[C@@](O)(O2)C(=O)C(=O)N2CCCC[C@H]2C(=O)O[C@H]([C@H](C)C[C@@H]2CC[C@@H](O)[C@H](OC)C2)CC(=O)[C@H](C)/C=C(\C)[C@@H](O)[C@@H](OC)C(=O)[C@H](C)C[C@H](C)/C=C/C=C/C=C/1C [Compound 17, Rapamycin]
- inhibition at 0.01 µM (TMD-8 cell line; 0.01 uM (10 nM)): 58.7%
- inhibition at 0.1 µM (TMD-8 cell line; 0.1 uM (100 nM)): 59.8%
- inhibition at 1 µM (TMD-8 cell line; 1 uM (1,000 nM)): 65%

Compound: CN(Cc1cnc2nc(N)nc(N)c2n1)c1ccc(C(=O)N[C@@H](CCC(=O)O)C(=O)O)cc1 [Compound 18, Methotrexate]
- Inh % on TMD-8 cell line (AVG) (TMD-8 cell line; 0.01 uM (10 nM)): −8.45%
- Inh % on TMD-8 cell line (AVG) (TMD-8 cell line; 0.1 uM (100 nM)): 32.04%
- Inh % on TMD-8 cell line (AVG) (TMD-8 cell line; 1 uM (1,000 nM)): 39.55%

Compound: C[C@@H]1C[C@H]2[C@@H]3CCC4=CC(=O)C=C[C@]4(C)[C@@]3(F)[C@@H](O)C[C@]2(C)[C@@]1(O)C(=O)CO [Dexamethasone]
- Pathological score (Mean ± SEM), Total ([2]; Dexamethasone 0.2 mg/kg QD): 0.00 ± 0.00
- Pathological score (Mean ± SEM), Bone resorption [2, 3]: 0.00 ± 0.00
- Pathological score (Mean ± SEM), Cartilage injury [2, 3]: 0.00 ± 0.00
- Pathological score (Mean ± SEM), Inflammatory cell infiltration [2, 3]: 0.00 ± 0.00
- Pathological score (Mean ± SEM), Pannus growth [2, 3]: 0.00 ± 0.00
- Pathological score (Mean ± SEM), Bone resorption [2, 4]: 0.00 ± 0.00
- Pathological score (Mean ± SEM), Cartilage injury [2, 4]: 0.00 ± 0.00
- Pathological score (Mean ± SEM), Inflammatory cell infiltration [2, 4]: 0.00 ± 0.00
- Pathological score (Mean ± SEM), Pannus growth [2, 4]: 0.00 ± 0.00
- Clinical Score (Mean) ([2]; day 21): 0.00
- Clinical Score (Mean) ([2]; day 32): 0.60***
- Clinical Score (Mean) ([2]; day 39): 0.40***
- Clinical Score (Mean) ([2]; day 42): 0.20***

Compound: CCN(c1cc(-c2ccc(CN3CCOCC3)cc2)cc(C(=O)NCc2c(C)cc(C)[nH]c2=O)c1C)C1CCOCC1 [EPZ-6438]
- effect against the WSU-DLCL tumor (WSU-DLCL2 xenograft): achieved a similar effect
- effect against the WSU-DLCL tumor (WSU-DLCL2 xenograft; listed as EZ-6438): inhibited tumor growth
